Assay results as given in PMC2815200 (Biochemical pharmacology, 2009).

Tests used:
hA3AR [1] = conditions: cited from earlier work
hA3 = conditions: read-out: affinity; hA3 ref 25, 26; cited from earlier work
mouse A2BAR = molecular target: T1, mouse A2BAR (Mus musculus, UniProt Q60614); assay: Competition binding of MRS5127 at mouse A2BAR; conditions: [^3H]MRS1754 2 nM, HEK 293 membranes
T1 sequence (Q60614 1-332): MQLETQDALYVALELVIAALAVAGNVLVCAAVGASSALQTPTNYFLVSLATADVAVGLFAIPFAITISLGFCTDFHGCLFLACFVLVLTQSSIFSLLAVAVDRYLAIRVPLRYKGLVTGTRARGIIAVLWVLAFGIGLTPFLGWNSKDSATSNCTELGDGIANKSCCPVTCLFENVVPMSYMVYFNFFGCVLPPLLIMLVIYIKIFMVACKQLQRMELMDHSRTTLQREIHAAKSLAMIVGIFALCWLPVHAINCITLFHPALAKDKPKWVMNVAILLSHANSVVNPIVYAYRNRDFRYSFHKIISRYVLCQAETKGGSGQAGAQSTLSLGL

hA3AR [2] = conditions: CHO cell membranes expressing hA3AR ref 25; cited from earlier work
mouse A3AR = molecular target: T2, mouse A3AR (Mus musculus, UniProt Q61618); assay: cAMP accumulation assay, HEK 293 cells expressing mouse A3AR; assay type: cell-based; conditions: forskolin 10 μM, 15 min, Ro 20-1724 20 μM
T2 sequence (Q61618 1-319): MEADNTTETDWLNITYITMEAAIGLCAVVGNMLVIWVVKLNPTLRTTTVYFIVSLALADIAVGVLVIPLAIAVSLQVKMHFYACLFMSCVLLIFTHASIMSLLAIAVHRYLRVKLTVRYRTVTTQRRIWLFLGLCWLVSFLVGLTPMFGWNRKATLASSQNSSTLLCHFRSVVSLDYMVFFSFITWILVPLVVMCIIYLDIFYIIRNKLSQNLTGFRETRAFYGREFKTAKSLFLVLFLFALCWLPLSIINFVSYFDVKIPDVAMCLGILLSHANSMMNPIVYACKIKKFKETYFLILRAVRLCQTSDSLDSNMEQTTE

mouse A2AAR = mouse A2AAR (Mus musculus, UniProt Q60613); assay: Competition binding of MRS5127 at mouse A2AAR; conditions: [^3H]CGS21680 10 nM, HEK 293 membranes
Sequence of mouse A2AAR (Q60613 whole entry): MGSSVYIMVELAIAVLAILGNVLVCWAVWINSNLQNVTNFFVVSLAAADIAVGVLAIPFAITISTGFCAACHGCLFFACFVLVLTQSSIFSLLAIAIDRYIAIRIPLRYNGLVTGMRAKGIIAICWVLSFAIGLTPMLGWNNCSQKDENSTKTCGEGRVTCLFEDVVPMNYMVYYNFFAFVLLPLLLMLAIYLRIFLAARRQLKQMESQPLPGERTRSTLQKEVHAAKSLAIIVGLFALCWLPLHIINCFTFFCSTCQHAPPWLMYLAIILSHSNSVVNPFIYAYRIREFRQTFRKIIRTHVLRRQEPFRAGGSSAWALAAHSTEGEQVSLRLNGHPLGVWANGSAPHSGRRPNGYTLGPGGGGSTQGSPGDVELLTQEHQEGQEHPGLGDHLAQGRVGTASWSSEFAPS

dog A3AR = molecular target: T3, dog A3AR (Canis lupus familiaris, UniProt Q28309); assay: cAMP accumulation assay, HEK 293 cells expressing dog A3AR; assay type: cell-based; conditions: forskolin 10 μM, 15 min, Ro 20-1724 20 μM
T3 sequence (Q28309 1-314): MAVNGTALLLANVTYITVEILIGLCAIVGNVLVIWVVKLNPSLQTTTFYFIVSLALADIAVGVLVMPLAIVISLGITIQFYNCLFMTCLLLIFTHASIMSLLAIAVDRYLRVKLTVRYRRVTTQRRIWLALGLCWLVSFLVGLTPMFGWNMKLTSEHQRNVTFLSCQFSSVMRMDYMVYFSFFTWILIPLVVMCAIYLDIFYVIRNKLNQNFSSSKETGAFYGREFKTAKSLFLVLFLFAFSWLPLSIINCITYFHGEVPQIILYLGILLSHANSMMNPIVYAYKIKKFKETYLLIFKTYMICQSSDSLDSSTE

mA1AR = molecular target: T4, mA1AR (Mus musculus, UniProt Q60612); assay: Competition binding of MRS5127 at mouse A1AR
T4 sequence (Q60612 1-326): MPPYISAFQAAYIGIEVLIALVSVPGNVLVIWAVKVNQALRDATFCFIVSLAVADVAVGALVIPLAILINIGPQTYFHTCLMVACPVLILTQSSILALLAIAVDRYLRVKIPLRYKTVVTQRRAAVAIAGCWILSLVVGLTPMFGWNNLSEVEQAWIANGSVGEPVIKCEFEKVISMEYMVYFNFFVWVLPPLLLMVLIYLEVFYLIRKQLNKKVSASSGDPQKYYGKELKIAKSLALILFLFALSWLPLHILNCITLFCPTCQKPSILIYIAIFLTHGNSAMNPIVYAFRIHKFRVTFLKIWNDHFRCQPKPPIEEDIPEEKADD

rabbit A3AR = molecular target: T5, rabbit A3AR (Oryctolagus cuniculus, UniProt O02667); assay: cAMP accumulation assay, HEK 293 cells expressing rabbit A3AR; assay type: cell-based; conditions: forskolin 10 μM, 15 min, Ro 20-1724 20 μM
T5 sequence (O02667 1-319): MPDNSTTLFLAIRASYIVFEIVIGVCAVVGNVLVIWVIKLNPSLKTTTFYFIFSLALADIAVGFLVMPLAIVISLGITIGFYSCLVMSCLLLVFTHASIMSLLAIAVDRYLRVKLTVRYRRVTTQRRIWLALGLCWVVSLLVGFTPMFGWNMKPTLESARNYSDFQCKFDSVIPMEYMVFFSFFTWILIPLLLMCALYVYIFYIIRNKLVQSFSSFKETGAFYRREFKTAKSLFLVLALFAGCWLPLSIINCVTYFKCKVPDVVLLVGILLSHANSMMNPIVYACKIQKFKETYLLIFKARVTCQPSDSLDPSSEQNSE

human A3AR = molecular target: T6, human A3AR (Homo sapiens, UniProt P0DMS8); assay type: binding; conditions: [^125I]MRS5127 0.2 nM, 2 h room temperature, Cheng-Prusoff
T6 sequence (P0DMS8 1-318): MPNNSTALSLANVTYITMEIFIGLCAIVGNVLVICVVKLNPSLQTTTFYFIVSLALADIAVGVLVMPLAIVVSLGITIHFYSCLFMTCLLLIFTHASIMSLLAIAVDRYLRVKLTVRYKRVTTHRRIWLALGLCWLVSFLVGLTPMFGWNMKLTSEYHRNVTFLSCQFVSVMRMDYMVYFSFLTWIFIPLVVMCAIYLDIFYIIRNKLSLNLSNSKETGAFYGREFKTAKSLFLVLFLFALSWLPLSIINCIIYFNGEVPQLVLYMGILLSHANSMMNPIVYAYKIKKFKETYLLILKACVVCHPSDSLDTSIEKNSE

| SMILES | efficacy in comparison to NECA (hA3AR [1]; cAMP accumulation, human receptors ref 26) | efficacy compared to the full agonist NECA (hA3AR [1]; cAMP, transfected cells ref 26) | Ki (hA3) | binding to mouse A2BAR (mouse A2BAR) | functional character by Schild analysis of [^35S]GTPγS binding (hA3AR [2]) | EC50 (mouse A3AR) | binding to mouse A2AAR (mouse A2AAR) | EC50 (dog A3AR) | affinity for mA1AR lower compared to the mA3AR (mA1AR; mA1AR versus mA3AR) | Ki (mA1AR; read-out: affinity (Ki value), [^125I]I-AB-MECA 0.3 nM, HEK 293 membranes) | EC50 (rabbit A3AR) | Ki (human A3AR) |
| --- | --- | --- | --- | --- | --- | --- | --- | --- | --- | --- | --- | --- |
| O[C@@H]1[C@H](O)[C@@H]2C[C@@H]2[C@H]1n1cnc2c(NCc3cccc(I)c3)nc(Cl)nc21 [MRS5127, (1′R,2′R,3′S,4′R,5′S)-4′-[2-chloro-6-(3-iodobenzylamino)-purine]-2′,3′-O-dihydroxybicyclo-[3.1.0]hexane] | roughly half efficacy | 45% | 1.44 ± 0.6 nM | did not bind | antagonist | 1.34 ± 0.07 nM | did not bind | 2.79 ± 0.41 nM | ~ 30 fold | 140 ± 26 nM | 1.53 ± 0.59 nM |  |
| CCCOC(=O)c1c(-c2ccccc2)nc(CC)c(C(=O)SCC)c1CCC [MRS1523, 5-propyl-2-ethyl-4-propyl-3-(ethylsulfanylcarbonyl)-6-phenylpyridine-5-carboxylate] |  |  |  |  |  |  |  |  |  |  |  | 246 ± 66 nM |
